How the values were obtained:
[1] = system: HIV-IIIb; test: Test A: Antiviral Assay in MT4 Cells; format: cell-based, HIV-1; settings: Human immunodeficiency virus 1, IIIB, MT4, 120 h; for inhibition at 0.2 µM: read-out: % inhibition at 0.2 μM; for inhibition at 2 µM: read-out: % inhibition at 2 μM
Method: Test A: Antiviral Assay in MT4 Cells
MT-4 cells were next mixed with HIV-IIIb at an m.o.i of 0.003 for 1 hour, after which time 35 μL of virus/cell mixture (2000 cells) was immediately added to each well containing 40 μL of diluted compound. The plates were then incubated at 37° C. for 5 days. […] Cell lysis was carried out by incubating at room temperature for 10 min and then chemiluminescence was read.

[2] = Test B: Cytotoxicity Assay; format: cell-based; settings: human, uninfected MT-4 cells, same protocol as Test A
Procedure, shortened: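 Uninfected MT-4 cells (2000 per well) incubated with diluted compound at 37° C. for 5 days, following the antiviral protocol without HIV-IIIb.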

## Cn1nc(NC(=O)C2CC2)c2c(Cl)ccc(-c3ccc(C#CC(C)(C)O)nc3[C@H](Cc3cc(F)cc(F)c3)NC(=O)Cn3nc(C(F)F)c4c3C(F)(F)[C@@H]3C[C@H]43)c21 [Compound 86, N-(4-chloro-7-(2-((S)-1-(2-((3b-S,4aR)-3-(difluoromethyl)-5,5-difluoro-3b,4,4a,5-tetrahydro-1H-cyclopropa[3,4]cyclopenta[1,2-c]pyrazol-1-yl)acetamido)-2-(3,5-difluorophenyl)ethyl)-6-(3-hydroxy-3-methylbut-1-yn-1-yl)pyridin-3-yl)-1-methyl-1H-indazol-3-yl)cyclopropanecarboxamide]
[1]
  inhibition at 0.2 µM: 99%
  inhibition at 2 µM: 99%
[2]
  CC50 at 5 days: 6.47 µM

## Cn1nc(O)c2cccc(-c3ccc(C#CC(C)(C)O)nc3[C@H](Cc3cc(F)cc(F)c3)NC(=O)Cn3nc(C(F)F)c4c3C(F)(F)[C@@H]3C[C@H]43)c21 [Compound 107B, 2-((3bS,4aR)-3-(difluoromethyl)-5,5-difluoro-3b,4,4a,5-tetrahydro-1H-cyclopropa[3,4]cyclopenta[1,2-c]pyrazol-1-yl)-N—((S)-2-(3,5-difluorophenyl)-1-(6-(3-hydroxy-3-methylbut-1-yn-1-yl)-3-(1-methyl-3-oxo-2,3-dihydro-1H-indazol-7-yl)pyridin-2-yl)ethyl)acetamide]
[1]
  inhibition at 0.2 µM: 95%
  inhibition at 2 µM: 95%
[2]
  CC50 at 5 days: 5.3 µM

## COc1ccc(-c2ccc(C#CC(C)(C)C)nc2[C@H](Cc2cc(F)cc(F)c2)NC(=O)Cn2nc(C(F)F)c3c2C(F)(F)[C@@H]2C[C@H]32)c2nnc(NS(C)(=O)=O)n12 [Compound 130, 2-((3bS,4aR)-3-(difluoromethyl)-5,5-difluoro-3b,4,4a,5-tetrahydro-1H-cyclopropa[3,4]cyclopenta[1,2-c]pyrazol-1-yl)-N—((S)-2-(3,5-difluorophenyl)-1-(6-(3,3-dimethylbut-1-yn-1-yl)-3-(5-methoxy-3-(methylsulfonamido)-[1,2,4]triazolo[4,3-a]pyridin-8-yl)pyridin-2-yl)ethyl)acetamide]
[1]
  inhibition at 0.2 µM: 80%
  inhibition at 2 µM: 85%
[2]
  CC50 at 5 days: 23.2 µM

## Cn1nc(NS(C)(=O)=O)c2c(Cl)ccc(-c3ccc(C#CC(C)(C)O)nc3[C@H](Cc3cc(F)cc(F)c3)NC(=O)Cn3nc(C(F)(F)F)cc3C3CC3)c21 [Compound 191, (S)—N-(1-(3-(4 chloro-1-methyl-3-(methylsulfonamido)-1H-indazol-7-yl)-6-(3-hydroxy-3-methylbut-1-yn-1-yl)pyridin-2-yl)-2-(3,5-difluorophenyl)ethyl)-2-(5-cyclopropyl-3-(trifluoromethyl)-1H-pyrazol-1-yl)acetamide]
[1]
  inhibition at 0.2 µM: 91%
  inhibition at 2 µM: 91%
[2]
  CC50 at 5 days: 10.1 µM

## CNc1nn(C)c2c(-c3ccc(C#CC(C)(C)O)nc3[C@H](Cc3cc(F)cc(F)c3)NC(=O)Cn3nc(C(F)F)c4c3C(F)(F)[C@@H]3C[C@H]43)cccc12 [Compound 68G, 2-((3b-S,4aR)-3-(difluoromethyl)-5,5-difluoro-3b,4,4a,5-tetrahydro-1H-cyclopropa[3,4]cyclopenta[1,2-c]pyrazol-1-yl)-N—((S)-2-(3,5-difluorophenyl)-1-(6-(3-hydroxy-3-methylbut-1-yn-1-yl)-3-(1-methyl-3-(methylamino)-1H-indazol-7-yl)pyridin-2-yl)ethyl)acetamide]
[1]
  inhibition at 0.2 µM: 96%
  inhibition at 2 µM: 96%
[2]
  CC50 at 5 days: 9.64 µM

## Cn1nc(NS(C)(=O)=O)c2c(Cl)ccc(-c3ccc(-c4cnn(C(C)(C)C)c4)nc3[C@H](Cc3cc(F)cc(F)c3)NC(=O)Cn3nc(C(F)F)c4c3C(F)(F)[C@@H]3C[C@H]43)c21 [Compound 168B, N—((S)-1-(6-(1-(tert-butyl)-1H-pyrazol-4-yl)-3-(4-chloro-1-methyl-3-(methylsulfonamido)-1H-indazol-7-yl)pyridin-2-yl)-2-(3,5-difluorophenyl)ethyl)-2-((3b-S,4aR)-3-(difluoromethyl)-5,5-difluoro-3b,4,4a,5-tetrahydro-1H-cyclopropa[3,4]cyclopenta[1,2-c]pyrazol-1-yl)acetamide]
[1]
  inhibition at 0.2 µM: 90%
  inhibition at 2 µM: 90%
[2]
  CC50 at 5 days: > 53.2 µM

## Cc1n[nH]c2cccc(-c3ccc(C#CC(C)(C)O)nc3[C@H](Cc3cc(F)cc(F)c3)NC(=O)Cn3nc(C(F)(F)F)c4c3C(F)(F)[C@@H]3C[C@H]43)c12 [Compound 79, 2-((3bS,4aR)-5,5-difluoro-3-(trifluoromethyl)-3b,4,4a,5-tetrahydro-1H-cyclopropa[3,4]cyclopenta[1,2-c]pyrazol-1-yl)-N—((S)-2-(3,5-difluorophenyl)-1-(6-(3-hydroxy-3-methylbut-1-yn-1-yl)-3-(3-methyl-1H-indazol-4-yl)pyridin-2-yl)ethyl)acetamide]
[1]
  inhibition at 0.2 µM: 100%
  inhibition at 2 µM: 100%
[2]
  CC50 at 5 days: 4.72 µM

## Cn1nc(NS(C)(=O)=O)c2cccc(-c3cnc(C#CC(C)(C)O)nc3[C@H](Cc3cc(F)cc(F)c3)NC(=O)Cn3nc(C(F)(F)F)c4c3C(F)(F)[C@@H]3C[C@H]43)c21 [Compound 41, 2-((3bS,4aR)-5,5-difluoro-3-(trifluoromethyl)-3b,4,4a,5-tetrahydro-1H-cyclopropa[3,4]cyclopenta[1,2-c]pyrazol-1-yl)-N—((S)-2-(3,5-difluorophenyl)-1-(2-(3-hydroxy-3-methylbut-1-yn-1-yl)-5-(1-methyl-3-(methylsulfonamido)-1H-indazol-7-yl)pyrimidin-4-yl)ethyl)acetamide]
[1]
  inhibition at 0.2 µM: 98%
  inhibition at 2 µM: 98%
[2]
  CC50 at 5 days: 7.63 µM

## CC(C)(O)C#Cc1ccc(-c2cc(C(=O)NC3COC3)c3nccn3c2)c([C@H](Cc2cc(F)cc(F)c2)NC(=O)Cn2nc(C(F)(F)F)c3c2C(F)(F)[C@@H]2C[C@H]32)n1 [Compound 35D, 6-(2-((S)-1-(2-((3bS,4aR)-5,5-difluoro-3-(trifluoromethyl)-3b,4,4a,5-tetrahydro-1H-cyclopropa[3,4]cyclopenta[1,2-c]pyrazol-1-yl)acetamido)-2-(3,5-difluorophenyl)ethyl)-6-(3-hydroxy-3-methylbut-1-yn-1-yl)pyridin-3-yl)-N-(oxetan-3-yl)imidazo[1,2-a]pyridine-8-carboxamide]
[1]
  inhibition at 0.2 µM: 28%
  inhibition at 2 µM: 91%
[2]
  CC50 at 5 days: 14.2 µM

## CN1CCN(C(=O)Nc2nn(C)c3c(-c4ccc(C#CC(C)(C)O)nc4[C@H](Cc4cc(F)cc(F)c4)NC(=O)Cn4nc(C(F)(F)F)c5c4C(F)(F)[C@@H]4C[C@H]54)cccc23)CC1 [Compound 51, N-(7-(2-((S)-1-(2-((3bS,4aR)-5,5-difluoro-3-(trifluoromethyl)-3b,4,4a,5-tetrahydro-1H-cyclopropa[3,4]cyclopenta[1,2-c]pyrazol-1-yl)acetamido)-2-(3,5-difluorophenyl)ethyl)-6-(3-hydroxy-3-methylbut-1-yn-1-yl)pyridin-3-yl)-1-methyl-1H-indazol-3-yl)-4-methylpiperazine-1-carboxamide]
[1]
  inhibition at 0.2 µM: 95%
  inhibition at 2 µM: 95%
[2]
  CC50 at 5 days: 11.1 µM

## Cn1nc(NC(=O)N2CCOCC2)c2cccc(-c3ccc(C#CC(C)(C)O)nc3[C@H](Cc3cc(F)cc(F)c3)NC(=O)Cn3nc(C(F)(F)F)c4c3C(F)(F)[C@@H]3C[C@H]43)c21 [Compound 52, N-(7-(2-((S)-1-(2-((3bS,4aR)-5,5-difluoro-3-(trifluoromethyl)-3b,4,4a,5-tetrahydro-1H-cyclopropa[3,4]cyclopenta[1,2-c]pyrazol-1-yl)acetamido)-2-(3,5-difluorophenyl)ethyl)-6-(3-hydroxy-3-methylbut-1-yn-1-yl)pyridin-3-yl)-1-methyl-1H-indazol-3-yl)morpholine-4-carboxamide]
[1]
  inhibition at 0.2 µM: 92%
  inhibition at 2 µM: 93%
[2]
  CC50 at 5 days: 31.8 µM

## COc1ccc2[nH]cc(CC(=O)N[C@@H](Cc3cc(F)cc(F)c3)c3nc(C#CC(C)(C)O)ccc3-c3ccc(Cl)c4c(NS(C)(=O)=O)nn(C)c34)c2n1 [Compound 194, (S)—N-(1-(3-(4 chloro-1-methyl-3-(methylsulfonamido)-1H-indazol-7-yl)-6-(3-hydroxy-3-methylbut-1-yn-1-yl)pyridin-2-yl)-2-(3,5-difluorophenyl)ethyl)-2-(5-methoxy-1H-pyrrolo[3,2-b]pyridin-3-yl)acetamide]
[1]
  inhibition at 0.2 µM: 84%
  inhibition at 2 µM: 99%
[2]
  CC50 at 5 days: 21.3 µM

## Cc1ccc(-c2ccc(C#CC(C)(C)C)nc2[C@H](Cc2cc(F)cc(F)c2)NC(=O)Cn2nc(C(F)F)c3c2C(F)(F)[C@@H]2C[C@H]32)c2nnc(NS(C)(=O)=O)n12 [Compound 133, 2-((3bS,4aR)-3-(difluoromethyl)-5,5-difluoro-3b,4,4a,5-tetrahydro-1H-cyclopropa[3,4]cyclopenta[1,2-c]pyrazol-1-yl)-N—((S)-2-(3,5-difluorophenyl)-1-(6-(3,3-dimethylbut-1-yn-1-yl)-3-(5-methyl-3-(methylsulfonamido)-[1,2,4]triazolo[4,3-a]pyridin-8-yl)pyridin-2-yl)ethyl)acetamide]
[1]
  inhibition at 0.2 µM: 90%
  inhibition at 2 µM: 90%
[2]
  CC50 at 5 days: 16.8 µM

## Cn1nc(NS(C)(=O)=O)c2c(Cl)ccc(-c3ccc(C#CC(C)(C)O)nc3[C@H](Cc3cc(F)cc(F)c3)NC(=O)Cn3nc(C(F)(F)F)c4c3CCCC4)c21 [Compound 124, (S)—N-(1-(3-(4 chloro-1-methyl-3-(methylsulfonamido)-1H-indazol-7-yl)-6-(3-hydroxy-3-methylbut-1-yn-1-yl)pyridin-2-yl)-2-(3,5-difluorophenyl)ethyl)-2-(3-(trifluoromethyl)-4,5,6,7-tetrahydro-1H-indazol-1-yl)acetamide]
[1]
  inhibition at 0.2 µM: 97%
  inhibition at 2 µM: 97%
[2]
  CC50 at 5 days: 9.14 µM
